Assay results: patent US12479812B2, “Fatty acid derivatives and their use” (THE UNITED STATES OF AMERICA, as represented by the …, priority 2017, dated 2025)

Key:
[1] = tested on: adult rat dorsal root ganglia (DRG) neurons; assay: Ex vivo CGRP release assay in adult rat sensory neuronal cultures; assay type: cell-based; details: 1 μM; for capsaicin-evoked CGRP release: 30 nM capsaicin; for low-pH-evoked CGRP release: buffer pH adjusted to 6.0
Procedure: For release experiments, the work was approved by the Animal Care and Use Committee at Indiana University School of Medicine, Indianapolis, IN. Adult rat sensory neuronal cultures were prepared as previously described (Burkey, Hingtgen, and Vasko, Methods in molecular medicine 99, 189, 2004; Kelley et al., PloS one 9, e106485, 2014). Cells were maintained for 10-12 days in F-12 media (Invitrogen, Carlsbad, CA) supplemented with 10% horse serum, 2 mM glutamine, 100 μg/ml normocin™, 50 μg/ml penicillin, 50 μg/ml streptomycin, 50 μM 5-fluoro-2′-deoxyuridine (Invitrogen), 150 μM uridine, and 30 ng/ml of NGF (Harlan Bioproducts for Science, Inc. Indianapolis, IN) in 3% CO2 at 37° C. On the day of the release experiments, cultures were washed with HEPES buffer (25 mM HEPES, 135 mM NaCl, 3.5 mM KCl, 2.5 mM CaCl2, 1 mM MgCl2, 3.3 mM D-glucose, and 0.1% bovine serum albumin, pH 7.4 and maintained at 37° C. Cultures were then incubated with 0.4 ml of the same buffer in the absence or presence of drugs. Basal release was determined by exposing the cells to HEPES buffer alone for 10 min, then to buffer in the presence of mediators for 10 min to ascertain if the compounds stimulated release. Cultures were then exposed to buffer containing 30 nM capsaicin or buffer with the pH adjusted to 6.0 in the absence or presence of mediators. Cells then were re-exposed to HEPES buffer without drugs for a 10 min incubation to reestablish basal release. After each incubation, the buffer was removed to measure the amount of CGRP using radioimmunoassay as previously described (Chen et al., Peptides 17, 31, 1996). At the end of each release experiment, cells were hypotonically lysed by exposing the cultures to 0.1 M HCl for 10 min and an aliquot taken to measure total CGRP content in the cultures using radioimmunoassay. […] Release data are presented in fmol/well of cell/10 min from three independent experiments from separate harvests. Statistical analysis was performed using ANOVA with Tukey's post hoc test.

male Sprague-Dawley rats = assay: Nociceptive (pain) behavior after intradermal hindpaw injection; assay type: in vivo, rat; details: for decrease of C-fiber withdrawal latencies: after intradermal hindpaw injection (11H-12,13E-LA 30 μg), versus vehicle
Procedure: 11-hydroxy-12,13-trans-epoxy-(9Z)-octadecenoate (30 μg) was injected intradermally into the hindpaw of male Sprague-Dawley rats. Baseline measurements were taken for all tests prior to injection. A-delta and C-fiber mediated hindpaw withdrawal responses were measured as previously described (Mitchell et al., Pain 155, 733, 2014). Briefly, by stimulation of the plantar surface of the paw with a 100 ms laser pulse, producing a rapid withdrawal response. Laser pulses were delivered by an infrared diode laser (LASS-10 M; Lasmed, Mountain View, CA, USA) and calibrated to 3500 mA at 0.5 mm diameter, and delivered from 1 cm distance, C-fiber mediated responses were measured by delivery of a slow temperature ramp to the plantar surface of the hindpaw, with stimulus termination by voluntary withdrawal of the paw. The laser stimulus was adjusted to result in an approximately 10 second withdrawal latency (1000 mA, 13 cm distance).

[2] = tested on: murine trigeminal sensory neurons; assay: Ca2+ responses in cultured trigeminal sensory neurons; assay type: cell-based, mouse; details: FIG. 7B
Procedure: Additionally, murine trigeminal sensory neurons were isolated and cultured in vitro. Fatty acid derivatives were applied to the cultured neurons and any resulting Ca^2+ response was measured in a blinded manner. The assayed compounds include: 11H-12,13E-LA (Compound 1), 11K-12,13E-LA (Compound 2), 11H-9,10E-LA (Compound 3), and 11K-9,10E-LA (Compound 4).

human THP-1 cells = assay: ApoA1 cholesterol efflux screen in THP-1 cells; assay type: cell-based; details: 50 μM; THP-1 cells incubated with ApoA1
Procedure: Human THP-1 cells were incubated with ApoA1 in the presence of linoleic acid or several different fatty acid derivatives (50 μM) in a blinded manner, and resulting cholesterol efflux was measured (FIG. 9) as previously described (PMID: 26879139).

[3] = tested on: freshly isolated human PBMCs; assay: ApoA1 cholesterol efflux screen in freshly isolated PBMCs; assay type: cell-based; details: 50 μM
[4] = tested on: tumor necrosis factor (TNF)-alpha secretion, human PBMCs; assay: PBMC cytokine secretion (ELISA): TNF-alpha; assay type: cell-based; details: 100 μM, 24 hours; for LPS-induced TNF-alpha secretion: LPS pre-incubation; for native TNF-alpha secretion: no LPS
Procedure: (§1) Freshly isolated human PBMCs were pre-incubated (FIGS. 11A and 11C) or not (FIGS. 11B and 11D) with LPS, and then incubated with ferulic acid (“FA,” 100 μM) and 11H-12,13E-LA, 11K-12,13E-LA, PBS, or LPS alone for 24 hours (blinded). Then, the medium concentration of TNF-alpha (FIGS. 11A and 11B) or […] (FIGS. 11C and 11D) was measured using enzyme-linked immunosorbent assay.

[5] = tested on: interleukin (IL)-1, human PBMCs; assay: PBMC cytokine secretion (ELISA): IL-1; assay type: cell-based; details: 100 μM; with or without LPS; 24 hours
Procedure: as §1

female mice (C57BL/6J) = assay: Pruriceptive (itch) behavior, scratching bouts after intradermal injection into nape of neck; assay type: in vivo, mouse; details: for itch-related scratching behavior compared to vehicle: 100 μg (mixture 100 μg of each) intradermal, n=6-8 per group, 30 minutes; for scratching bouts compared to vehicle, pilot testing: n=3 per group, first 30 minutes after intradermal injection; for onset of scratching responses (significantly greater than vehicle) / time of maximum scratching response: 9K-12,13E-LA 100 μg, histamine 50 μg
Procedure: Hydroxy- and keto-epoxide derivatives of LA (100 μg) or histamine (50 μg) were injected intra-dermally into the nape of neck of the female mice (C57BL/6J from Jackson Laboratory). LA derivatives (9-keto-12,13-epoxy-(10E)-octadecenoate or 13-keto-9,10-epoxy-(11E)-octadecenoate) were injected independently, and in combination (9-keto-12,13-epoxy-(10E)-octadecenoate plus 13-keto-9,10-epoxy-(11E)-octadecenoate (100 μg of each)). Pruriceptive behavior was quantified as the number of scratching bouts assessed over 30 minutes, as previously described (Mishra and Hoon, Science 340, 968, 2013).

[6] = Incubation under esterification conditions (glycerol on silica gel, 3 days), LC-MS; assay type: physicochemical; details: for esterification with glycerol: free acid in ether with glycerol-coated silica gel, 3 days; for internal lactonization: under the esterification conditions
Procedure: • A: 10 mM NH4OAc, pH 7.4 • B: Acetonitrile+0.1% formic acid • 0-1.50 min: 5% B • 1.50-2 min: 5-90% B • 2-10 min: 90% B • 10.01-15 min: 5% B • DAD1 254 nm • DAD2 215 nm • Agilent Zorbax XDB-C18 5 μm C18 50×2.0 mm • 0.4 ml/min MS Parameters: Agilent 6120 with Electrospray Ionization • Drying gas flow: 11.0 L/min • Nebulizer pressure: 40 psig • Drying gas temperature: 350 C • Positive capillary voltage: 4000 V • Negative capillary voltage: 3000 V
Approximately 30 mg of silica gel was added to 25 mg of glycerol, and it was then vortexed to coat all of the silica with glycerol, until the admixture was free-flowing. Between 5-10 mg of this material was added to a solution of the free acid in ether, and it was vortexed briefly. The reaction was left for 3 days, then filtered and evaporated under nitrogen. The residue was redissolved in ethanol and analyzed by LC-MS, in both positive and negative modes.

[7] = tested on: normal mice or a mast cell knock-out mouse; assay: Itch-related scratching in normal and mast cell knock-out mice; assay type: in vivo; details: 100 μg intradermal; 30 minutes
Procedure: The fatty acid derivative 9K-12,13E-LA (100 μg) was injected intra-dermally into the nape of neck of normal mice or a mast cell knock-out mouse (FIG. 8) in a blinded manner. Pruriceptive behavior was quantified as the number of scratching bouts assessed over 30 minutes, as previously described (Mishra and Hoon, Science 340, 968, 2013).

In the case of CCCCC[C@H](O)/C=C/[C@H]1[C@H](O)CC(=O)[C@@H]1C/C=C\CCCC(=O)O [PGE2, prostaglandin E2, reference compound], the “direct stimulation of CGRP release” value ([1]; neutral pH) is reported as “neither PGE2 nor any of the other tested compounds directly stimulated”, the “capsaicin-evoked CGRP release” value [1] is reported as “significantly augmented” and the “low-pH-evoked CGRP release” value [1] is reported as “significantly augmented”. The “proportion of withdrawal responses following Aδ fiber laser stimulation” value (male Sprague-Dawley rats; after intradermal hindpaw injection) was “significantly enhanced” and the “decrease of C-fiber withdrawal latencies” value (male Sprague-Dawley rats) was 46%.
For CCCCCC1OC1C(O)/C=C\CCCCCCCC(=O)O (stereo not drawn) [11H-12,13E-LA, 11-hydroxy(H)-12,13-trans-epoxy-(E)-octadecenoate], the “capsaicin-evoked CGRP release” value [1] was “significantly augmented”, the “low-pH-evoked CGRP release” value [1] was “significantly augmented” and the “decrease of C-fiber withdrawal latencies” value (male Sprague-Dawley rats) was 28%. For the same compound, the “number of trigeminal cells responding, concentration-response” value [2] was “increase in the number of cells responding”, the “ApoA1-mediated monocyte cholesterol efflux” value (human THP-1 cells) was “inhibited” and the “ApoA1-mediated monocyte cholesterol efflux” value [3] was “inhibited”. The “LPS-induced TNF-alpha secretion” value [4] was “inhibits”, the “native TNF-alpha secretion” value [4] was “inhibits” and the IL-1 secretion [5] was “has no effect”.
In the case of CCCCCC(=O)/C=C/C1OC1CCCCCCCC(=O)O (stereo not drawn) [13K-9,10E-LA, 13-keto(K)-9,10-trans-epoxy-(E)-octadecenoate], the “itch-related scratching behavior compared to vehicle” value (female mice (C57BL/6J)) is reported as “no response” and the “scratching bouts compared to vehicle, pilot testing” value (female mice (C57BL/6J)) is reported as “appeared to increase scratching bouts”.
In the case of CC/C=C\C/C=C\C/C=C\C/C=C\C/C=C\C=C\C(O)CC(C)C(=O)O (centres unmarked) [2-methyl-4-hydroxy-DHA], the esterification with glycerol [6] is reported as “resistant to glycerol esterification” and the internal lactonization [6] is reported as “competitive lactonization”.
In the case of CC/C=C\C/C=C\C/C=C\C/C=C\C/C=C\C=C\C(O)CC(C)(C)C(=O)O (centres unmarked) [2,2-dimethyl-4-hydroxy-DHA], the esterification with glycerol [6] is reported as “resistant to esterification, including internal lactonization” and the internal lactonization [6] is reported as “did not lactonize”.
For “9-hydroxy-octadecadienoic acid [reference compound]”, the “ApoA1-mediated monocyte cholesterol efflux” value (human THP-1 cells) was “increased”.
In the case of CC/C=C\C/C=C\C/C=C\C/C=C\C/C=C\C=C\C(O)CCC(=O)O (centres unmarked) [4-hydroxy-DHA, reference compound], the internal lactonization [6] is reported as “rapidly undergoes internal lactonization”.
For CCCCCC1OC1/C=C/C(O)CCCCCCCC(=O)O (stereo not drawn) [9H-12,13E-LA, 9-hydroxy(H)-12,13-trans-epoxy-(E)-octadecenoate], the “capsaicin-evoked CGRP release” value [1] was “Neither 9H-12,13E-LA, nor any of the tested keto-epoxy-octadecenoates, augmented” and the “low-pH-evoked CGRP release” value [1] was “Neither 9H-12,13E-LA, nor any of the tested keto-epoxy-octadecenoates, augmented”.
With CCCCCC1OC1C(=O)/C=C\CCCCCCCC(=O)O (stereo not drawn) [11K-12,13E-LA, 11-keto(K)-12,13-trans-epoxy-(E)-octadecenoate] the “ApoA1-mediated monocyte cholesterol efflux” value (human THP-1 cells) was “inhibited”, the “ApoA1-mediated monocyte cholesterol efflux” value [3] was “inhibited” and the “LPS-induced TNF-alpha secretion” value [4] was “inhibits”. The “native TNF-alpha secretion” value [4] was “inhibits” and the IL-1 secretion [5] was “has no effect”.
With CCCCC/C=C\C(O)C1OC1CCCCCCCC(=O)O (stereo not drawn) [11H-9,10E-LA, 11-hydroxy(H)-9,10-trans-epoxy-(E)-octadecenoate] the “capsaicin-evoked CGRP release” value [1] was “significantly augmented”, the “low-pH-evoked CGRP release” value [1] was “significantly augmented” and the “number of trigeminal cells responding, concentration-response” value [2] was “increase in the number of cells responding”.
In the case of CCCCCC(O)/C=C/C1OC1CCCCCCC(C)(C)C(=O)O (stereo not drawn) [2,2-dimethyl-13-hydroxy-9,10-trans-epoxy-(11E)-octadecenoic acid], the esterification with glycerol [6] is reported as “resistant to esterification”.
For NCCc1c[nH]cn1 [histamine, reference compound], the “onset of scratching responses (significantly greater than vehicle)” value (female mice (C57BL/6J)) was at most 5 min and the “time of maximum scratching response” value (female mice (C57BL/6J)) was 5 to 10 min.
For CCCCC/C=C\C/C=C\CCCCCCCC(=O)O [Linoleic acid, reference compound], the “ApoA1-mediated monocyte cholesterol efflux” value (human THP-1 cells) was “increased cholesterol efflux”.
In the case of CCCCCC1OC1/C=C/C(=O)CCCCCCCC(=O)O (stereo not drawn) [9K-12,13E-LA, 9-keto(K)-12,13-trans-epoxy-(E)-octadecenoate], the “itch-related scratching behavior compared to vehicle” value (female mice (C57BL/6J)) is reported as “induced itch-related scratching behavior”, the “onset of scratching responses (significantly greater than vehicle)” value (female mice (C57BL/6J)) is reported as “slower onset” and the “time of maximum scratching response” value (female mice (C57BL/6J)) is reported as 10 to 15 min. The “scratching bouts compared to vehicle, pilot testing” value (female mice (C57BL/6J)) was “appeared to increase scratching bouts”, the “scratching responses in mast cell knockout mice” value [7] was “increased scratching responses” and the “scratching responses in wild type mice” value [7] was “increased scratching responses”.
With CCCCCC(O)/C=C/C1OC1CCCCCCCC(=O)O (stereo not drawn) [13H-9,10E-LA, 13-hydroxy(H)-9,10-trans-epoxy-(E)-octadecenoate] the “capsaicin-evoked CGRP release” value [1] was “had no effect” and the “low-pH-evoked CGRP release” value [1] was “significantly augmented”.
